Assay results from US10059697B2, “Compounds and combinations for the treatment of HIV” (priority 2015, dated 2018).
Where two headings read alike, the source gives them in different places.

Test system: HIV-1 expression in latently infected resting CD4 T cells from HIV-1 Infected Subjects on cART
Assay: microbe, parasite or virus in culture
Type: cell-based
Details: Human immunodeficiency virus 1, CD4+ T; for fold induction at 0.015 µM: 24 h; for fold induction at 0.3 µM: 0.25 h, read-out: Fold HIV Activation, Geometric Mean, 0.3 μM Carfilzomib, 15 min pulse; for fold induction at 0.04 µM: 4 h, read-out: Fold HIV Activation, Geometric Mean, 40 nM Romidepsin, 4 h pulse
Method: The leukapheresis product was diluted with PBS and layered over Ficoll for isolation of PBMCs. PBMCs were treated with red blood cell lysis buffer and rested overnight (10 million cells/ml) in tissue culture medium (RPMI 1640 supplemented with 10% FBS and Pen/Strep) before the isolation of resting (CD69-CD25-HLA-DR-) CD4 T cells according to the manufacturer's instructions (EasySep Human CD4 T cell Enrichment Kit modified to also deplete CD69+, CD25+, or HLA-DR+ cells). Resting CD4 T cells were cultured in four replicate wells per condition with the indicated compounds or with dimethyl sulfoxide (DMSO, vehicle control) for 6 days. To assess latency reversal that occurs in response to mitogenic activation of T cells, cells were incubated with 50 ng/ml phorbol 12-myristate 13-acetate (PMA) and 500 ng/ml ionomycin. Unless otherwise indicated, continuous exposure was used. Where pulses are indicated, at the end of the pulse, cells were spun three times at 500×g for 5 min, supernatant was decanted and replaced with an equal volume of fresh media. When in combination with another compound that was not pulsed, the compound with continuous exposure was added back at the indicated concentration. The cultures were maintained in the presence of antivirals (elvitegravir and efavirenz at 100 nM each) to prevent viral spread and amplification in order to measure the quantity of virions produced (latency reversal) by the indicated compounds. At the end of the incubation period, cell-free culture supernatants were harvested and HIV-1 RNA levels were quantified by the COBAS® AmpliPrep/COBAS® TaqMan HIV-1 Test, v2.0 (Roche). Romidepsin was used as a control. Romidepsin is a HDAC inhibitor with HIV latency reversal activity (PLoS pathogens (2015), 11(9), e1005142). The combination of a phorbol ester (PMA) and a calcium ionophore (ionomycin) was also used as a mitogenic control that has strong HIV latency reversal activity. As this combination induces global T cell proliferation and activation, systemic administration would likely induce significant toxicity. As such, PMA and ionomycin are useful strictly as a tool to monitor the amount of virus that can be produced in response to a strongly activating stimuli.

Work on `CC(C)C[C@H](NC(=O)[C@H](Cc1ccccc1)NC(=O)c1cnccn1)B(O)O` [Bortezomib, bortezomib, reference compound] yielded a fold induction at 0.015 µM (read-out: Fold HIV Activation, 15 nM bortezomib, 24 hr pulse, individual subjects, Table 8) of 3.47, a fold induction at 0.015 µM (read-out: Fold HIV Activation, 15 nM bortezomib, 24 hr pulse, individual subjects, Table 9) of 3.47 and a fold induction at 0.015 µM (read-out: Fold HIV Activation, Geometric Mean, 15 nM Bortezomib 24 h pulse, geometric mean of subjects, Table 5 (n = 10)) of 1.36. The fold induction at 0.015 µM (read-out: Fold HIV Activation, Geometric Mean, 15 nM bortezomib, 24 hr pulse, geometric mean of subjects, Table 8 (n = 2)) was 3.64, the fold induction at 0.015 µM (read-out: Fold HIV Activation, Geometric Mean, 15 nM bortezomib, 24 hr pulse, geometric mean of subjects, Table 9 (n = 2)) was 3.64 and the fold induction at 0.015 µM (read-out: Fold HIV Activation, Geometric Mean, 15 nM bortezomib, 24 hr pulse, geometric mean of subjects, Table 10 (n = 3)) was 2.23.
`CC(C)C[C@H](NC(=O)[C@H](CCc1ccccc1)NC(=O)CN1CCOCC1)C(=O)N[C@@H](Cc1ccccc1)C(=O)N[C@@H](CC(C)C)C(=O)[C@@]1(C)CO1` [Carfilzomib, carfilzomib, reference compound] gave a fold induction at 0.3 µM (geometric mean of subjects, Table 6 (n = 9)) of 1.04, a fold induction at 0.3 µM (geometric mean of subjects, Table 11 (n = 3)) of 0.94 and a fold induction at 0.3 µM (geometric mean of subjects, Table 12 (n = 3)) of 0.94.
In the case of `N#Cc1ncn(CC(=O)Nc2ccc3oc4ccccc4c3c2)n1` [Compound 1], the fold induction at 1 µM (read-out: Fold HIV Activation, Geometric Mean, 1 μM Compound 1, geometric mean of subjects, Table 1 (n = 10)) is reported as 1.03, the fold induction at 3 µM (read-out: Fold HIV Activation, Geometric Mean, 3 μM Compound 1, geometric mean of subjects, Table 1 (n = 10)) is reported as 2.94 and the fold induction at 3 µM (read-out: Fold HIV Activation, Geometric Mean, 3 μM Compound 1, geometric mean of subjects, Table 5 (n = 10)) is reported as 3.12. The fold induction at 3 µM (read-out: Fold HIV Activation, Geometric Mean, 3 μM Compound 1, geometric mean of subjects, Table 6 (n = 9)) was 3.53, the fold induction at 3 µM (read-out: Fold HIV Activation, Geometric Mean, 3 μM Compound 1, geometric mean of subjects, Table 7 (n = 7)) was 5.92 and the fold induction at 6 µM (read-out: Fold HIV Activation, Geometric Mean, 6 μM Compound 1, geometric mean of subjects, Table 1 (n = 10)) was 6.32.
`COc1cc2c(cc1NC(=O)Cn1cnc(C#N)n1)oc1ccccc12` [Compound 2] gave a fold induction at 1 µM (144 h, read-out: Fold HIV Activation, 1 μM Compound 2, 6 days, individual subjects, Table 2) of 1.04, a fold induction at 6 µM (144 h, read-out: Fold HIV Activation, 6 μM Compound 2, 6 days, individual subjects, Table 2) of 4.41 and a fold induction at 3 µM (read-out: Fold HIV Activation, 3 μM Compound 2, individual subjects, Table 8) of 3.42. The fold induction at 1 µM (read-out: Fold HIV Activation, Geometric Mean, 1 μM Compound 2, geometric mean of subjects, Table 2 (n = 8)) was 1.09, the fold induction at 3 µM (read-out: Fold HIV Activation, Geometric Mean, 3 μM Compound 2, geometric mean of subjects, Table 2 (n = 8)) was 2.76 and the fold induction at 3 µM (read-out: Fold HIV Activation, Geometric Mean, 3 μM Compound 2, geometric mean of subjects, Table 8 (n = 2)) was 2.46. It also gave a fold induction at 3 µM (read-out: Fold HIV Activation, Geometric Mean, 3 μM Compound 2, geometric mean of subjects, Table 11 (n = 3)) of 2.75 and a fold induction at 6 µM (read-out: Fold HIV Activation, Geometric Mean, 6 μM Compound 2, geometric mean of subjects, Table 2 (n = 8)) of 3.56.
`N#Cc1ncn(CC(=O)Nc2ccc3c(c2)C(=O)c2ccccc2-3)n1` [Compound 3, 2-(3-cyano-1H-1,2,4-triazol-1-yl)-N-(9-oxo-9H-fluoren-2-yl)acetamide] was tested, and the fold induction at 6 µM (144 h, read-out: Fold HIV Activation, 6 μM Compound 3, 6 days, individual subjects, Table 3) was 3.75, the fold induction at 1 µM (read-out: Fold HIV Activation, Geometric Mean, 1 μM Compound 3, geometric mean of subjects, Table 3 (n = 8)) was 1.62 and the fold induction at 3 µM (read-out: Fold HIV Activation, Geometric Mean, 3 μM Compound 3, geometric mean of subjects, Table 3 (n = 8)) was 2.31. It also gave a fold induction at 3 µM (read-out: Fold HIV Activation, Geometric Mean, 3 μM Compound 3, geometric mean of subjects, Table 9 (n = 2)) of 1.99, a fold induction at 3 µM (read-out: Fold HIV Activation, Geometric Mean, 3 μM Compound 3, geometric mean of subjects, Table 12 (n = 3)) of 2.59 and a fold induction at 6 µM (read-out: Fold HIV Activation, Geometric Mean, 6 μM Compound 3, geometric mean of subjects, Table 3 (n = 8)) of 2.61.
`C#CCOc1cc2c(cc1NC(=O)Cn1cnc(C#N)n1)oc1ccccc12` [Compound 4, 2-(3-cyano-1H-1,2,4-triazol-1-yl)-N-(2-(prop-2-yn-1-yloxy)dibenzo[b,d]furan-3-yl)acetamide] was tested, and the fold induction at 1 µM (144 h, read-out: Fold HIV Activation, 1 μM Compound 4, 6 days, individual subjects, Table 4) was 1.09, the fold induction at 6 µM (144 h, read-out: Fold HIV Activation, 6 μM Compound 4, 6 days, individual subjects, Table 4) was 3.03 and the fold induction at 1 µM (read-out: Fold HIV Activation, Geometric Mean, 1 μM Compound 4, geometric mean of subjects, Table 4 (n = 5)) was 1.09. The fold induction at 3 µM (read-out: Fold HIV Activation, Geometric Mean, 3 μM Compound 4, geometric mean of subjects, Table 4 (n = 5)) was 3.54, the fold induction at 3 µM (read-out: Fold HIV Activation, Geometric Mean, 3 μM Compound 4, geometric mean of subjects, Table 10 (n = 3)) was 3.54 and the fold induction at 6 µM (read-out: Fold HIV Activation, Geometric Mean, 6 μM Compound 4, geometric mean of subjects, Table 4 (n = 5)) was 3.97.
With `COC[C@H](NC(=O)c1cnc(C)s1)C(=O)N[C@@H](COC)C(=O)N[C@@H](Cc1ccccc1)C(=O)[C@@]1(C)CO1` [Oprozomib, oprozomib, reference compound] the fold induction at 0.1 µM (1 h, read-out: Fold HIV Activation, Geometric Mean, 100 nM Oprozomib, 1 hr pulse, geometric mean of subjects, Table 7 (n = 7)) was 2.37.
`C/C=C1\NC(=O)[C@H]2CSSCC/C=C/[C@H](CC(=O)N[C@H](C(C)C)C(=O)N2)OC(=O)[C@H](C(C)C)NC1=O` [Romidepsin, reference compound] showed a fold induction at 0.04 µM (geometric mean of subjects, Table 1 (n = 10)) of 2.73, a fold induction at 0.04 µM (geometric mean of subjects, Table 2 (n = 8)) of 3.16 and a fold induction at 0.04 µM (geometric mean of subjects, Table 3 (n = 8)) of 3.16. For the same molecule, the fold induction at 0.04 µM (geometric mean of subjects, Table 4 (n = 5)) was 2.33.
